Data taken from US7414048B2, “4,5-dihydro-isoxazole derivatives and their pharmaceutical use” (Janssen Pharmaceutica, N.V., priority 1998, dated 2008).

Tested on: T cell blast formation in human blood
Assay: In vitro inhibition of T cell blast formation in human blood (human whole blood blast formation, PHA stimulated, flow cytometry)
Assay type: cell-based
Details: 72 hours, mean where multiple measurements
Description: Cells are collected after a 72 hours culture period at 37° C., supernatant is removed by centrifugation and red blood cells are lysed by a hypotonic buffer. The remaining white blood cells are collected in PBS containing propidium iodide. The blast formation is analyzed using a benchtop flow cytometer (Cytoron, Ortho) equipped with an argon-ion laser. […] When multiple measurements were performed, a mean value was calculated for the percentage inhibition of T cell blast formation.

[1] = Test Dose 3 × 10^−7 (unit not given)
[2] = Test Dose 1 × 10^−6 (unit not given)
[3] = Test Dose 1 × 10^−7 (unit not given)

SMILES	% Inhibition of T cell blast formation [2] [%]	other results
NC(=O)C(c1ccc(Cl)cc1Cl)c1ccc(NC(=O)C2CC(c3cccnc3)=NO2)cc1Cl (stereo not drawn) [Compound 310]		% Inhibition of T cell blast formation [1]: 64%
CN1N=C(c2ccccc2)CC1c1ccc(NC(=O)C2CC(c3cccnc3)=NO2)cc1 (stereo not drawn) [Compound 457]		% Inhibition of T cell blast formation [1]: 67%
O=C(c1ccc(NC(=O)C2CC(c3cccnc3)=NO2)cc1)c1c(F)cccc1F (stereo not drawn) [Compound 385]		% Inhibition of T cell blast formation [1]: 69%
Nc1nc(-c2ccccc2)c(C(c2ccccc2)c2ccc(NC(=O)C3CC(c4cccnc4)=NO3)cc2)s1 (stereo not drawn) [Compound 53]	39	
NC(=O)c1ccccc1NC(c1ccccc1)c1ccc(NC(=O)C2CC(c3cccnc3)=NO2)cc1 (stereo not drawn) [Compound 192]	72	
O=C(Nc1ccc(C(Nc2cccc(Cl)c2)c2ccccc2)cc1)C1CC(c2cccnc2)=NO1 (stereo not drawn) [Compound 216]	70	
CC(C)OC(c1ccccc1)c1ccc(NC(=O)C2CC(c3cccnc3)=NO2)cc1.Cl (stereo not drawn) [Compound 418]	75	
NC(c1ccccc1)c1ccc(NC(=O)[C@@H]2CC(c3cccnc3)=NO2)cc1 (stereo partly drawn) [Compound 205, [5S-(A)]-N-[4-(aminophenylmethyl)phenyl]4,5-dihydro-3-(3-pyridinyl)-5-isoxazolecarboxamide]	73	
O=C(Nc1ccc(C(Nc2cccc(F)c2)c2ccccc2)cc1)C1CC(c2cccnc2)=NO1 (stereo not drawn) [Compound 214]	62	
CC(O)(c1ccccc1)c1ccc(NC(=O)C2CC(c3cccnc3)=NO2)cc1 (stereo not drawn) [Compound 510, (B1)-4,5-dihydro-N-[4-(1-hydroxy-1-phenylethyl)phenyl]-3-(3-pyridinyl)-5-isoxazolecarboxamide]	76	
COc1ccc(OC)c(C(=NO)c2ccc(NC(=O)C3CC(c4cccnc4)=NO3)cc2)c1 (stereo not drawn) [Compound 440]		% Inhibition of T cell blast formation [3]: 77%
O=C(Nc1ccc(C(Nc2ccccn2)c2ccccc2)cc1)C1CC(c2cccnc2)=NO1 (stereo not drawn) [Compound 99]	83	
CCOc1ccc(C)c(NC(c2ccccc2)c2ccc(NC(=O)C3CC(c4cccnc4)=NO3)cc2)c1 (stereo not drawn) [Compound 172]	35	
COc1ccccc1CNC(=O)c1ccc(NC(=O)C2CC(c3cccnc3)=NO2)cc1 (stereo not drawn) [Compound 285]	72	
COc1ccc(/C=C/C(=O)c2ccc(NC(=O)C3CC(c4cccnc4)=NO3)cc2)c(C)c1C (racemic) [Compound 479]	85	
COC(C(N)=O)(c1ccccc1)c1ccc(NC(=O)C2CC(c3cccnc3)=NO2)cc1 (stereo not drawn) [Compound 442]	75	
COc1cc(C(=NO)c2ccc(NC(=O)C3CC(c4cccnc4)=NO3)cc2)cc(OC)c1OC (stereo not drawn) [Compound 436]		% Inhibition of T cell blast formation [1]: 78%
NC(c1ccccc1)c1ccc(NC(=O)[C@@H]2CC(c3cccnc3)=NO2)cc1 (stereo partly drawn) [Compound 206, [5S-(B)]-N-[4-(aminophenylmethyl)phenyl]4,5-dihydro-3-(3-pyridinyl)-5-isoxazolecarboxamide]	66	
O=C(Nc1ccc(C(Nc2ccccc2O)c2ccccc2)cc1)C1CC(c2cccnc2)=NO1 (stereo not drawn) [Compound 203]	62	
Cc1ccc(CNC(=O)c2ccc(NC(=O)C3CC(c4cccnc4)=NO3)cc2)cc1 (stereo not drawn) [Compound 273]	62	
CN1CCC(CNC(c2ccccc2)c2ccc(NC(=O)C3CC(c4cccnc4)=NO3)cc2)CC1 (stereo not drawn) [Compound 103]	82	
O=C(Nc1ccc(Oc2ccccc2)cc1)C1CC(c2cccnc2)=NO1 (stereo not drawn) [Compound 36]		% Inhibition of T cell blast formation (Test Dose 1 × 10^−5 (unit not given)): 85%
O=C(c1ccncc1)c1ccc(NC(=O)C2CC(c3cccnc3)=NO2)cc1 (stereo not drawn) [Compound 388]		% Inhibition of T cell blast formation [3]: 74%
C=CCOc1ccccc1/C=C/C(=O)c1ccc(NC(=O)C2CC(c3cccnc3)=NO2)cc1 (racemic) [Compound 470]	87	
